This experiment has as its system P. acnes (ATCC 6919). Briefly: ΣFIC assay against P. acnes (checkerboard MIC, alamar blue). The class given is cell-based, Propionibacterium acne (P. acnes). As to conditions: P. acnes ATCC 6919 in LB, anaerobic 37° C. 50 hours, lowest concentration giving complete growth inhibition; for MIC: Cutibacterium acnes, ATCC6919, single active alone, read-out: MIC (Minimum Inhibition Concentration). As for the experimental part: Synergistic interaction between the essential oil active and the AML compounds was determined using the ΣFIC assay against P. acnes. A brief description of the method is given below.
Methods: ΣFIC Assay Against P. acnes
P. acnes (ATCC 6919) is inoculated on Reinforced Clostridial Medium Agar plate (RCMA, solution A) and cultured anaerobically in an anaerobic jar at 37° C. for 72 to 96 hours. A single colony was cultured into Reinforced Clostridial Medium (RCM, solution B) and incubated anaerobically at 37° C. for 72 to 96 hours. Final cell density is adjusted to around 5×10^7 cells/ml by diluting using RCM. Then the inoculum is further diluted 1:1000 into Luria-Bertani medium (LB, solution C) to get around 5*10^4 cell/ml.
Essential oil active was serially diluted (2-fold) to prepare in a range of 10 to 10,000 ppm in the LB growth medium. The AML compound was serially diluted (2-fold) to prepare in a range of 15.6 to 1000 ppm for sapienic acid, and palmitoleic acid; and 2-125 ppm for other AMLs in the LB growth medium.
Binary combinations of essential oil and AML compound were prepared in 96-well plate by mixing 20 μl of essential oil solution with 20 μl of AML compound. The solution in each well were further mixed with 160 μl of P. acnes in LB. The final cell density in the testing plate is around 4*10^4 cell/ml, and the final concentration of actives in each well of the 96-well plate were shown below.
The fatty acid AML sapienic acid and palmitoleic acid compound concentrations (in ppm): 100, 50, 25, 12.5, 6.25, 3.13, 1.56, and 0. The sphingosine AML compound concentrations (in ppm): 12.5, 6.3, 3.1, 1.6, 0.8, 0.4, 0.2 and 0.
The plate was incubated anaerobically at 37° C. for 50 hours. Then 20 μl of alamar blue (0.01%) was added into each well with a further incubation aerobically for two to three days to observe the color change. Red color indicates microbial growth and the non-changing blue color indicates no growth. In addition, it was also confirmed that the testing compound alone will not cause color change of alamar blue with a control mixture without adding microbes.
The MIC is defined as the absolute lowest concentration of active that provides complete microbial growth inhibition as indicated by the blue color of alamar blue under the tested condition.
The differing behaviour of inhibitory antimicrobials in isolation and mixtures have been widely explored using the concept of the Fractional Concentration (FC) and Fractional Inhibitory Concentration (FIC). The parameter can be defined as follows: […]
These relationships can be expressed mathematically by summing the fractional MIC values for all the components present in the mixture to give the “fractional inhibition index”. There is no consistent approach in the academic or patent literature in defining precise limiting ΣFIC values that differentiate synergy from additivity or antagonism. In this study, we have adopted a liberal approach defining any binary mixture with ΣFIC<0.9 as showing evidence of synergistic behavior.
ΣFIC=FIC (component 1)+FIC (component 2)
ΣFIC=1 corresponds to additive microbial activity
ΣFIC>1 corresponds to antagonistic microbial activity
ΣFIC<0.9 corresponds to synergistic microbial activity
Based on the concentration range of the essential oil actives (0 to 1000 ppm) and the AML compound (0 to 100 ppm) at which the experiments were carried out, the ΣFIC of the combinations is given below in Table-1.

The values that follow come from patent publication US20210030646A1, “AN ANTIMICROBIAL COMPOSITION COMPRISING ESSENTIAL OIL AND ANTIMICROBIAL LIPID” (Conopco, Inc., d/b/a UNILEVER, priority 2017, published 2021).

Regarding `CCCCCC/C=C\CCCCCCCC(=O)O` [palmitoleic acid], the MIC worked out at 1 µg/mL.

Consider `CCCCCCCCCCCCCCC[C@@H](O)[C@@H](N)CO` [dihydrosphingosine], for which, under “single active alone”, the “MIC (Minimum Inhibition Concentration)” value is recorded as 0.2 ppm.

As to `CCCCCCCCCCCCCC[C@@H](O)[C@@H](O)[C@@H](N)CO` [phytosphingosine], the MIC worked out at 0.2 µg/mL.

Turning to `CCCCCCCCCCCCC/C=C/[C@@H](O)[C@@H](N)CO` [sphingosine], the MIC stood at 0.4 µg/mL.

As for `Cc1ccc(C(C)C)c(O)c1` [thymol], the MIC worked out at 62.5 µg/mL.
